Laboratory results as given in ChEMBL document CHEMBL5325418, “Studies on diketopiperazine and dipeptide analogs as opioid receptor ligands” (Eur J Med Chem, 2023).
Square brackets hold non-standard residues; d marks the D form. Peptide text beside a SMILES is read from it. * marks the point of attachment. ξ: configuration not given here. ξPhe(3-OMe) = COc1cccc(CC(N)C(=O)O)c1; ξPhe(2-I) = NC(Cc1ccccc1I)C(=O)O; Nphe = O=C(O)CNCc1ccccc1; Boc = CC(C)(C)OC(=O)*

How the values were obtained:
Homo sapiens [1] = species: Homo sapiens; experiment: Selectivity ratio of Ki for displacement of [3H]DADLE from human DOR expressed in CHO cell membranes to Ki for displacement of [3H]U69593 from human KOR expressed in HEK cell membranes
Homo sapiens [2] = species: Homo sapiens; experiment: Selectivity ratio of Ki for displacement of [3H]DAMGO from human MOR expressed in CHO cell membranes to Ki for displacement of [3H]U69593 from human KOR expressed in HEK cell membranes
Mu-type opioid receptor = Mu-type opioid receptor (Homo sapiens, UniProt P35372); experiment: Displacement of [3H]DAMGO from human MOR expressed in CHO cell membranes assessed as inhibition constant incubated for 60 mins by microbeta 2 scintillation counting method; design: species or system Cell membrane
Sequence of Mu-type opioid receptor (P35372 whole entry): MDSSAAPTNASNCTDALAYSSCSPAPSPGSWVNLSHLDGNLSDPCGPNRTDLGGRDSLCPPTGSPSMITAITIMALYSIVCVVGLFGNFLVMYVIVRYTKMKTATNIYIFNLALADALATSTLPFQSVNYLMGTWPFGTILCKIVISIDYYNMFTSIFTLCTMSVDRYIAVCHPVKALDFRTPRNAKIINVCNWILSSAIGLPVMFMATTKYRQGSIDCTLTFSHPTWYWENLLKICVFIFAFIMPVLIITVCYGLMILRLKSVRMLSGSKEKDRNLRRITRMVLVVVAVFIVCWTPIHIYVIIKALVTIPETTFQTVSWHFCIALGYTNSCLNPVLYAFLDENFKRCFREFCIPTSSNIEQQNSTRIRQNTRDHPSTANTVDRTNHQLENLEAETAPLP

[3] = target: Kappa-type opioid receptor (Homo sapiens, UniProt P41145); experiment: Displacement of [3H]U69593 from human KOR expressed in HEK cell membranes assessed as inhibition constant incubated for 60 mins by microbeta 2 scintillation counting method; design: species or system Cell membrane
Sequence of Kappa-type opioid receptor (P41145 whole entry): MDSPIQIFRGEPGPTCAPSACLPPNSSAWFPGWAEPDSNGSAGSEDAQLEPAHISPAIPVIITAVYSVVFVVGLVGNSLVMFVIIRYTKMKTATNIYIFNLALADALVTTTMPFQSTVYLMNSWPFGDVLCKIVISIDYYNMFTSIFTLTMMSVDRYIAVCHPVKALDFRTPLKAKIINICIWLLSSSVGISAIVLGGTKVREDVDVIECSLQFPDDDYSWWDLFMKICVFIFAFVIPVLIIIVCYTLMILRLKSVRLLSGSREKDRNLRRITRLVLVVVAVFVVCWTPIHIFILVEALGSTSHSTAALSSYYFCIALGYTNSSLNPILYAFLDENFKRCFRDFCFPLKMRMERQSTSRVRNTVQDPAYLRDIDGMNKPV

[4] = target: Delta-type opioid receptor (Homo sapiens, UniProt P41143); experiment: Displacement of [3H]DADLE from human DOR expressed in CHO cell membranes assessed as inhibition constant incubated for 60 mins by microbeta 2 scintillation counting method; design: species or system Cell membrane
Sequence of Delta-type opioid receptor (P41143 whole entry): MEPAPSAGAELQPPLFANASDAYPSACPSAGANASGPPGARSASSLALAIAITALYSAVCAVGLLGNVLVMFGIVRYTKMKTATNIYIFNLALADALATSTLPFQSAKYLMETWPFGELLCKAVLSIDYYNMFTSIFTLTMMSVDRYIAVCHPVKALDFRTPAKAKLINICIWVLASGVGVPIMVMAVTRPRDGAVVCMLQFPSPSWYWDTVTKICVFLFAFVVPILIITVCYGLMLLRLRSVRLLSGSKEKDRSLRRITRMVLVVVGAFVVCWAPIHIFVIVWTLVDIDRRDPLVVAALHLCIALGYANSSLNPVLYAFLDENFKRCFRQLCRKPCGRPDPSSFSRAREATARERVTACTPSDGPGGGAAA

[5] = Metabolic stability in Beagle dog plasma assessed as half life at 100 uM measured upto 24 hrs by LC-MS/MS analysis; assay type: ADME, cell-free, Canis lupus familiaris; settings: 24 h, 100 µM
BEND3 = experiment: Apparent permeability coefficient of the compound across blood brain barrier in mouse BEND3 cells at 10 ug/ml measured upto 120 mins by LC-MS/MS analysis; assay type: functional, cell-based; settings: dose 10.0 µg/ml
[6] = Metabolic stability in Sprague-Dawley rat liver microsomes assessed as intrinsic clearance at 100 uM measured upto 24 hrs in presence of NADPH by LC-MS/MS analysis; assay type: ADME, Microsome
[7] = Metabolic stability in human plasma assessed as half life at 100 uM measured upto 24 hrs by LC-MS/MS analysis; assay type: ADME, cell-free; settings: 24 h, 100 µM
[8] = Plasma protein binding in human assessed as bound fraction at 1 uM by LC-MS/MS analysis; assay type: ADME, cell-free
[9] = Metabolic stability in Sprague-Dawley rat plasma assessed as half life at 100 uM measured upto 24 hrs by LC-MS/MS analysis; assay type: ADME, cell-free
[10] = Metabolic stability in CD-1 mouse plasma assessed as half life at 100 uM measured upto 24 hrs by LC-MS/MS analysis; assay type: ADME, cell-free
[11] = Plasma protein binding in dog assessed as bound fraction at 1 uM by LC-MS/MS analysis; assay type: ADME, cell-free, Canis lupus familiaris

SMILES | Ki (Mu-type opioid receptor) | Ki [3] | Ki [4] | further results
Cn1c(=O)c2c(ncn2C)n(C)c1=O |  |  |  | Pe (BEND3): 28.1 10^-3cm/min
COC(=O)C(Cc1cccc(OC)c1I)NC(=O)CN (configuration not stated) | > 10 µM | > 10 µM | > 10 µM | 
COC(=O)C(Cc1cccc(OC)c1I)NC(=O)CNCc1cccnc1 (configuration not stated) | > 10 µM | > 10 µM | > 10 µM | 
COC(=O)C(Cc1cccc(OC)c1I)NC(=O)CCCc1ccccc1 (configuration not stated) | > 10 µM | > 10 µM | > 10 µM | 
Cc1cccc(CC2NC(=O)CN(Cc3ccccc3)C2=O)c1I (configuration not stated) | > 10 µM | > 10 µM | > 10 µM | 
COc1cccc(CC2NC(=O)CN(Cc3cccnc3)C2=O)c1I (configuration not stated) | > 10 µM | > 10 µM | > 10 µM | 
COc1cccc(CC2NC(=O)[C@H](Cc3ccccc3)NC2=O)c1I (some centres not stated) | > 10 µM | > 10 µM | > 10 µM | 
O=C1CN(Cc2ccccc2)C(=O)C(Cc2cccc(O)c2I)N1 (configuration not stated) | > 10 µM | > 10 µM | > 10 µM | 
COc1cccc(CC2NC(=O)[C@@H]3CCCN3C2=O)c1I (some centres not stated) | > 10 µM | > 10 µM | > 10 µM | 
COC(=O)C(Cc1cccc(OC)c1I)NC(=O)CN(Cc1ccccc1)C(=O)OC(C)(C)C (configuration not stated) | > 10 µM | > 10 µM | > 10 µM | 
COC(=O)C(Cc1ccccc1I)NC(=O)CNCc1ccccc1 (configuration not stated) (H-[Nphe]-[ξPhe(2-I)]-OMe) | > 10 µM | > 10 µM | > 10 µM | 
COC(=O)C(Cc1cccc(OC)c1)NC(=O)CN(Cc1ccccc1)C(=O)OC(C)(C)C (configuration not stated) (Boc-[Nphe]-[ξPhe(3-OMe)]-OMe) | > 10 µM | > 10 µM | > 10 µM | 
COC(=O)C(Cc1cccc(OC)c1I)NC(=O)CN(C)Cc1ccccc1 (configuration not stated) | > 10 µM | 0.256 µM | > 10 µM | Ratio Ki (Homo sapiens [1]): > 40; Ratio Ki (Homo sapiens [2]): > 40
COC(=O)C(Cc1cccc(OC)c1I)NC(=O)CNC(C)c1ccccc1 (configuration not stated) | > 10 µM | 0.765 µM | > 10 µM | Ratio Ki (Homo sapiens [1]): > 13; Ratio Ki (Homo sapiens [2]): > 13
COc1cccc(CC2NC(=O)CN(C)C2=O)c1I (configuration not stated) | > 10 µM | > 10 µM | > 10 µM | 
COc1cccc(CC(NC(=O)CNCc2ccccc2)C(=O)O)c1I (configuration not stated) | > 10 µM | > 10 µM | > 10 µM | 
COC(=O)C(Cc1cccc(OC)c1I)NC(=O)CN(Cc1ccccc1)C(C)=O (configuration not stated) | > 10 µM | > 10 µM | > 10 µM | 
COC(=O)C(Cc1cccc(OC)c1C)NC(=O)CNCc1ccccc1 (configuration not stated) | > 10 µM | 0.19 µM | > 10 µM | t1/2 [5]: 4.321 h; Pe (BEND3): 6.25 10^-3cm/min; Ratio Ki (Homo sapiens [1]): > 53; Ratio Ki (Homo sapiens [2]): > 53; Intrinsic clearance [6]: 1112 µL/min/mg; t1/2 [7]: 2.5282 h; PPB [8]: 89.36%; half-life at 100 µM [9]: < 1 min; half-life at 100 µM [10]: < 1 min; PPB [11]: 94.28%
O=C1OC2(c3ccc(O)cc3Oc3cc(O)ccc32)c2ccccc21 |  |  |  | Pe (BEND3): 0.95 10^-3cm/min
COC(=O)C(Cc1cccc(OC)c1I)NC(=O)CNCc1ccccc1 (configuration not stated) | > 10 µM | 0.277 µM | > 10 µM | t1/2 [5]: 3.6808 h; Pe (BEND3): 8.75 10^-3cm/min; Ratio Ki (Homo sapiens [1]): > 36; Ratio Ki (Homo sapiens [2]): > 36; Intrinsic clearance [6]: 1928 µL/min/mg; t1/2 [7]: 2.1762 h; PPB [8]: 90.8%; half-life at 100 µM [9]: < 1 min; half-life at 100 µM [10]: < 1 min; PPB [11]: 97.09%

Further lines, with some results ahead:

Ki (Mu-type opioid receptor) | Ki [3] | Ki [4] | SMILES | further results
> 10 µM | 1.44 µM | > 10 µM | COc1cccc(CC(NC(=O)CNCc2ccccc2)C(=O)OC(C)C)c1I (configuration not stated) | Ratio Ki (Homo sapiens [1]): > 7; Ratio Ki (Homo sapiens [2]): > 7
> 10 µM | 1.23 µM | > 10 µM | COC(=O)C(Cc1cccc(OC)c1I)NC(=O)CCNCc1ccccc1 (configuration not stated) | Ratio Ki (Homo sapiens [1]): > 8; Ratio Ki (Homo sapiens [2]): > 8
> 10 µM | > 10 µM | > 10 µM | COC(=O)C(Cc1cccc(OC)c1)NC(=O)CNCc1ccccc1 (configuration not stated) (H-[Nphe]-[ξPhe(3-OMe)]-OMe) | 
> 10 µM | 0.802 µM | > 10 µM | COC(=O)C(Cc1cccc(OC)c1I)NC(=O)CNCCc1ccccc1 (configuration not stated) | Ratio Ki (Homo sapiens [1]): > 12; Ratio Ki (Homo sapiens [2]): > 12
> 10 µM | > 10 µM | > 10 µM | COc1cccc(CC2NC(=O)[C@H](CC(C)C)NC2=O)c1I (some centres not stated) | 
> 10 µM | > 10 µM | > 10 µM | COC(=O)C(Cc1cc(OC)cc(OC)c1I)NC(=O)CNCc1ccccc1 (configuration not stated) | 
> 10 µM | > 10 µM | > 10 µM | COc1cccc(CC2NC(=O)CCN(Cc3ccccc3)C2=O)c1I (configuration not stated) | 
> 10 µM | > 10 µM | > 10 µM | COc1cccc(CC2NC(=O)CNC2=O)c1I (configuration not stated) | 
> 10 µM | 2.17 µM | > 10 µM | COC(=O)C(Cc1cccc(OC)c1I)NC(=O)[C@@H](N)Cc1ccccc1 (mixture of isomers) | Ratio Ki (Homo sapiens [1]): > 5; Ratio Ki (Homo sapiens [2]): > 5
> 10 µM | > 10 µM | > 10 µM | COC(=O)C(Cc1cccc(OC)c1I)NC(=O)CN(C)C(=O)OC(C)(C)C (configuration not stated) | 
> 10 µM | > 10 µM | > 10 µM | CNCC(=O)NC(Cc1cccc(OC)c1I)C(=O)OC (configuration not stated) | 
> 10 µM | 0.123 µM | > 10 µM | COC(=O)C(Cc1cccc(C)c1I)NC(=O)CNCc1ccccc1 (configuration not stated) | t1/2 [5]: 3.8202 h; Pe (BEND3): 21.5 10^-3cm/min; Ratio Ki (Homo sapiens [1]): > 81; Ratio Ki (Homo sapiens [2]): > 81; Intrinsic clearance [6]: 1889 µL/min/mg; t1/2 [7]: 2.4577 h; PPB [8]: 97.86%; half-life at 100 µM [9]: < 1 min; half-life at 100 µM [10]: < 1 min
> 10 µM | > 10 µM | > 10 µM | COc1cccc(CC2NC(=O)CN(CC=C(C)C)C2=O)c1I (configuration not stated) | 
> 10 µM | 7 µM | > 10 µM | COc1cccc(CC2NC(=O)CN(CCCc3ccccc3)C2=O)c1I (configuration not stated) | Ratio Ki (Homo sapiens [1]): > 1.4; Ratio Ki (Homo sapiens [2]): > 1.4
> 10 µM | 5.11 µM | > 10 µM | COc1cccc(CC2NC(=O)CN(CCc3ccccc3)C2=O)c1I (configuration not stated) | Ratio Ki (Homo sapiens [1]): > 1.9; Ratio Ki (Homo sapiens [2]): > 1.9
> 10 µM | > 10 µM | > 10 µM | COc1cccc(CC2NC(=O)CN(Cc3ccccc3)C2=O)c1 (configuration not stated) | 
4.38 µM | 4.18 µM | > 10 µM | COC(=O)C(Cc1ccccc1I)NC(=O)CN(Cc1ccccc1)C(=O)OC(C)(C)C (configuration not stated) (Boc-[Nphe]-[ξPhe(2-I)]-OMe) | 
